{
  "source": "paper PMC6366094",
  "about": "“Suppression of Myeloid Cell Arginase Activity leads to Therapeutic Response in a NSCLC Mouse Model by Activating Anti-Tumor Immunity” (Journal for Immunotherapy of Cancer, 2019)",
  "key": {"human ARG2 (arginase 2)": {"target": "T1, human ARG2 (arginase 2) (Homo sapiens, UniProt P78540)", "T1 sequence (P78540 23-354)": "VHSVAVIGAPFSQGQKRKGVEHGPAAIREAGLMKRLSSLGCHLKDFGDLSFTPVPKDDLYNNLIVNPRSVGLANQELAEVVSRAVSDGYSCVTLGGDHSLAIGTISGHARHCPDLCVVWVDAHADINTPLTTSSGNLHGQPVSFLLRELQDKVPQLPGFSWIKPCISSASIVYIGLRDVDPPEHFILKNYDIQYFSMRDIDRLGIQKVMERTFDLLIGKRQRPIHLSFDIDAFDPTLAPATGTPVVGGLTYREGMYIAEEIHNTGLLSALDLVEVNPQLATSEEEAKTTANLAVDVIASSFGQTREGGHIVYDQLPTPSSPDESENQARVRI", "assay": "enzymatic arginase inhibition assay (data not shown)", "format": "biochemical"}, "human ARG1 (arginase 1)": {"target": "T2, human ARG1 (arginase 1) (Homo sapiens, UniProt P05089)", "T2 sequence (P05089 1-322)": "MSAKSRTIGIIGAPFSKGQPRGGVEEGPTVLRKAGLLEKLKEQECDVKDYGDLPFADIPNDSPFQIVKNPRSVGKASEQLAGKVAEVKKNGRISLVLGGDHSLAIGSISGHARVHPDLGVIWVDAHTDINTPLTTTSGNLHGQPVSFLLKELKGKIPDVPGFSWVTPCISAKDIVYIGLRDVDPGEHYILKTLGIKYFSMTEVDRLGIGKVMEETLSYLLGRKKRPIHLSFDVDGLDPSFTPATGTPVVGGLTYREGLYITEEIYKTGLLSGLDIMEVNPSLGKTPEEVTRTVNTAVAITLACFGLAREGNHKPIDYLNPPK", "assay": "enzymatic arginase inhibition assay (data not shown)", "format": "biochemical"}},
  "data": [
    {"smiles": "N[C@](CCCCB(O)O)(CCN1CCCCC1)C(=O)O", "note": "[compound 9, (R)-2-amino-6-borono-2-(2-(piperidin-1-yl)ethyl) hexanoic acid]", "values": [
      {"measurement": "IC50", "setting": "human ARG2 (arginase 2)", "result": 2.7, "unit": "µM"},
      {"measurement": "IC50", "setting": "human ARG1 (arginase 1)", "result": 1.1, "unit": "µM"}
    ]}
  ]
}
